In the first test the target is GABAA receptor. The test can be described thus: Steroid inhibition of [35S]-TBPS binding, rat brain cortical membranes. As to conditions: Table I-1, 3 nM [35S]-TBPS, in the presence of 5 mM GABA. On the procedure:
[^35S]-t-Butylbicyclophosphorothionate (TBPS) binding assays using rat brain cortical […] membranes in the presence of 5 mM GABA has been described (Gee et al, J. Pharmacol. Exp. Ther. 1987, 241, 346-353; Hawkinson et al, Mol. Pharmacol. 1994, 46, 977-985; Lewin, A. H et al., Mol. Pharmacol. 1989, 35, 189-194).
Briefly, cortices are rapidly removed following decapitation of carbon dioxide-anesthetized Sprague-Dawley rats (200-250 g). The cortices are homogenized in 10 volumes of ice-cold 0.32 M sucrose using a glass/teflon homogenizer and centrifuged at 1500×g for 10 min at 4° C. The resultant supernatants are centrifuged at 10,000×g for 20 min at 4° C. to obtain the P2 pellets. The P2 pellets are resuspended in 200 mM NaC/50 mM Na—K phosphate pH 7.4 buffer and centrifuged at 10,000×g for 10 min at 4° C. This washing procedure is repeated twice and the pellets are resuspended in 10 volumes of buffer. Aliquots ([…]) of the membrane suspensions are incubated with 3 nM [^35S]-TBPS and […] aliquots of test drug dissolved in dimethyl sulfoxide (DMSO) (final 0.5%) in the presence of 5 mM GABA. The incubation is brought to a final volume of 1.0 mL with buffer. Nonspecific binding is determined in the presence of […] unlabeled TBPS and ranged from 15 to 25%. Following a 90 min incubation at room temp, the assays are terminated by filtration through glass fiber filters (Schleicher and Schuell No. 32) using a cell harvester (Brandel) and rinsed three times with ice-cold buffer. Filter bound radioactivity is measured by liquid scintillation spectrometry. Non-linear curve fitting of the overall data for each drug averaged for each concentration is done using Prism (GraphPad). […] The concentration of test compound producing 50% inhibition (IC50) of specific binding and the maximal extent of inhibition (Imax) are determined for the individual experiments with the same model used for the overall data and then the means±SEM.s of the individual experiments are calculated.
Various compounds are or can be screened to determine their potential as modulators of [35S]-TBPS binding in vitro. These assays are or can be performed in accordance with the above.
With `C[C@@]1(O)CC[C@@H]2[C@H]3CC[C@]4(C)[C@@H](C(=O)Cn5cc(C#N)cn5)CC[C@H]4[C@@H]3CO[C@@H]2C1` [I-A17, 1-(2-((1S,3aS,3bR,5aS,7R,9aR,9bS,1aS)-7-hydroxy-7,11a-dimethylhexadecahydroindeno[4,5-c]chromen-1-yl)-2-oxoethyl)-1H-pyrazole-4-carbonitrile], the IC50 lay in the range of 1000 to 10000 nM.
On the same count and under the same terms, the value for `CC(=O)[C@H]1CC[C@H]2[C@@H]3COC4C[C@](C)(O)CC[C@@H]4[C@H]3CC[C@]12C` (stereo in doubt) [I-A15, 1-((1S,3aS,3bR,5aS,7R,9aR,9bS,11aS)-7-hydroxy-7,11a-dimethylhexadecahydroindeno[4,5-c]chromen-1-yl)ethan-1-one] was 1000 to 10000 nM.

The test is the same for the next values; noted with them: Table II-2, 3 nM [35S]-TBPS, in the presence of 5 mM GABA.
For the molecule `CC(=O)[C@H]1COC[C@H]2[C@@H]3CC[C@@H]4C[C@](C)(O)CC[C@@H]4[C@H]3CC[C@]12C` [II-B12, 1-((1R,4aS,4bR,6aR,8R,10aS,10bR,12aS)-8-hydroxy-8,12a-dimethylhexadecahydro-2H-naphtho[1,2-h]isochromen-1-yl)ethan-1-one], the IC50 lay in the range of 100 to 1000 nM.
As to `C[C@@]1(O)CC[C@H]2[C@H](CC[C@@H]3[C@@H]2CC[C@]2(C)[C@@H](C(=O)Cn4cc(C#N)cn4)OC[C@@H]32)C1` [II-A13b, 1-(2-((1S,3aS,3bR,5aR,7R,9aS,9bR,11aS)-7-hydroxy-7,11a-dimethylhexadecahydrophenanthro[1,2-c]furan-1-yl)-2-oxoethyl)-1H-pyrazole-4-carbonitrile], the IC50 was in the range of 1000 to 10000 nM.
Still for that read-out and setting: the value for `CC(=O)[C@H]1OC[C@H]2[C@@H]3CC[C@@H]4C[C@](C)(O)CC[C@@H]4[C@H]3CC[C@]12C` [II-A11b, 1-((1S,3aS,3bR,5aR,7R,9aS,9bR,11aS)-7-hydroxy-7,11a-dimethylhexadecahydrophenanthro[1,2-c]furan-1-yl)ethan-1-one] was at least 10000 nM; that for `C[C@@]1(O)CC[C@H]2[C@H](CC[C@@H]3[C@@H]2CC[C@]2(C)[C@@H](C(=O)Cn4cc(C#N)cn4)COC[C@@H]32)C1` [II-B14, 1-(2-((1R,4aS,4bR,6aR,8R,10aS,10bR,12aS)-8-hydroxy-8,12a-dimethylhexadecahydro-2H-naphtho[1,2-h]isochromen-1-yl)-2-oxoethyl)-1H-pyrazole-4-carbonitrile] was 100 to 1000 nM.

One may read the IC50 as the concentration needed to halve the response being measured.
